In brackets after ≈: the same amount, converted by molar mass. Activity calls are given as the source filed them. The calls are words filed in the database; no cut-off is given here.
Key:
Escherichia coli [1] = assay: Antimicrobial activity against Escherichia coli ATCC 11229 at 500 ug/mL after 24 hrs by MTT assay; type: functional, organism-based
Bacillus subtilis [2] = assay: Antimicrobial activity against Bacillus subtilis ATCC 6633 at 500 ug/mL after 24 hrs by MTT assay; type: functional, organism-based
Staphylococcus aureus [3] = assay: Antimicrobial activity against Staphylococcus aureus ATCC 6538 at 500 ug/mL after 24 hrs by MTT assay; type: functional, organism-based
Escherichia coli [4] = assay: Antimicrobial activity against Escherichia coli ATCC 11229 after 24 hrs by MTT assay; type: functional; conditions: ATCC 11229, 24 h
Bacillus subtilis [5] = assay: Antimicrobial activity against Bacillus subtilis ATCC 6633 after 24 hrs by MTT assay; type: functional; conditions: ATCC 6633, 24 h
Staphylococcus aureus [6] = assay: Antimicrobial activity against Staphylococcus aureus ATCC 6538 after 24 hrs by MTT assay; type: functional; conditions: ATCC 6538, 24 h
[7] = Inhibition of Cu2+ induced human LDL oxidation; type: functional

O=C1C=CC(O)(CC(=O)O[C@H]2[C@H](OC(=O)/C=C/c3ccc(O)c(O)c3)C[C@](O)(C(=O)O)C[C@H]2OC(=O)/C=C/c2ccc(O)c(O)c2)C=C1
Activity (Escherichia coli [1]): inactive | Activity (Bacillus subtilis [2]): inactive | Activity (Staphylococcus aureus [3]): inactive

CN[C@@H]1[C@H](O[C@H]2[C@H](O[C@H]3[C@H](O)[C@@H](O)[C@H](N=C(N)N)[C@@H](O)[C@@H]3N=C(N)N)O[C@@H](C)[C@]2(O)C=O)O[C@@H](CO)[C@H](O)[C@H]1O (stereo in doubt) [STREPTOMYCIN]
MIC (Escherichia coli [4]): 12.5 µg/mL (≈ 21.5 µM) | MIC (Bacillus subtilis [5]): 12.5 µg/mL (≈ 21.5 µM) | MIC (Staphylococcus aureus [6]): 12.5 µg/mL (≈ 21.5 µM)

O=C(/C=C/c1ccc(O)c(O)c1)O[C@@H]1C[C@](O)(C(=O)O)C[C@@H](OC(=O)/C=C/c2ccc(O)c(O)c2)[C@H]1O
Activity [7]: Dose-dependent effect

O=C(C=Cc1ccc(O)c(O)c1)O[C@@H]1C[C@](O)(C(=O)O)C[C@@H](O)[C@H]1O
Activity [7]: Dose-dependent effect
